From the SangsterLogP compilation

Compound	logP
C[C@H]1O[C@@H](O[C@H]2[C@@H](O)C[C@H](O[C@H]3[C@@H](O)C[C@H](O[C@H]4CC[C@@]5(C)[C@H](CC[C@@H]6[C@@H]5CC[C@]5(C)[C@@H](C7=CC(=O)OC7)CC[C@]65O)C4)O[C@@H]3C)O[C@@H]2C)C[C@H](O)[C@@H]1O	3.42
CC(C)N(C(=O)COc1nnc(C(F)(F)F)s1)c1ccc(F)cc1	3.19
CC1=C(C(=O)Nc2ccccc2)S(=O)(=O)CCO1	1.13
COc1ccc(-c2ccccc2)cc1NNC(=O)OC(C)C	3.8
CON=C1C[C@]2(C[C@@H]3C[C@@H](C/C=C(\C)C[C@@H](C)C=C/C=C4\CO[C@@H]5[C@H](O)C(C)=C[C@@H](C(=O)O3)[C@]45O)O2)O[C@H](/C(C)=C/C(C)C)[C@H]1C	4.99
CCOCn1c(-c2ccc(Cl)cc2)c(C#N)c(Br)c1C(F)(F)F	4.61
COP(=S)(OC)SCC(=O)N(c1ccc(Cl)cc1)C(C)C	3.8
CCCCOCCOCCOCc1cc2c(cc1CCC)OCO2	4.39
Oc1ccc(Oc2ccccc2)cc1	3.92
CCCN(CCC)c1c([N+](=O)[O-])cc(C(F)(F)F)cc1[N+](=O)[O-]	4.98
N#Cc1c[nH]cc1-c1cccc(Cl)c1Cl	3.78
CC(C)C(C(=O)OC(C#N)c1cccc(Oc2ccccc2)c1)c1ccc(Cl)cc1 (stereo unspecified)	5.71
CN(C)CCC=C1c2ccccc2COc2ccccc21	3.75
CC(C)(C)c1ccc(CCOc2ncnc3ccccc23)cc1	4.91
C=CCc1ccccc1OC[C@@H](O)CNC(C)C	2.63
CO/C=C(/C(=O)OC)c1ccccc1Oc1cc(Oc2ccccc2C#N)ncn1	2.97
